{
  "source": "patent US20090099123A1",
  "about": "“Antisense microRNA and uses therefor” (priority 2007, published 2009)",
  "key": {"[1]": {"test_system": "prostate and pancreatic tumors and cells", "details": "cited from earlier work"}, "miR-27a [2]": {"test_system": "miR-27a", "details": "these and other cancer cells (refs 23, 42, 43); cited from earlier work"}, "[3]": {"test_system": "RKO and SW480 colon cancer cells", "assay": "Cell proliferation assay in colon cancer cells", "format": "cell-based", "experimental": "(§1) FIG. 8A: Decreased cell survival in RKO cells. […] Cell survival is expressed as the percentage of β-CDODA-Me-treated cells remaining compared to DMSO (set at 100%).\n(§2) RKO and SW480 colon cancer cells (2×10^4 per well) were plated in 12-well plates and allowed to attach for 24 hr. The medium was then changed to DMEM/Ham's F-12 medium containing 2.5% charcoal-stripped FBS, and either vehicle (DMSO) or different concentrations of the compound were added. Fresh medium and compounds were added every 48 hr, and cells were then trypsinized and counted after 48 and 96 hr using a Coulter Z1 cell counter. Transfection experiments in RKO and SW480 cells used 0.4 μg of reporter gene constructs and 0.04 μg of β-Gal and LipofectAMINE 2000 reagent (Invitrogen). Results of cell proliferation and transfection studies are expressed as means±S.E. for at least three replicate determinations for each treatment group. Western blots were determined with whole cell lysates essentially."}, "Sp1 gene promoter": {"test_system": "Sp1 gene promoter", "assay": "Sp1 promoter construct luciferase activity in RKO cells", "format": "cell-based", "experimental": "as §2"}, "Sp3 gene promoter": {"test_system": "Sp3 gene promoter", "assay": "Sp3 promoter construct luciferase activity in RKO cells", "format": "cell-based", "experimental": "as §2"}, "[4]": {"test_system": "Sp1, Sp3, Sp4, VEGF, VEGFR1 and survivin", "assay": "Sp and Sp-dependent mRNA and proteins in colon cancer cells (semi-quantitative RT-PCR, Western blot)", "format": "cell-based", "excerpt": "(§3) ID NO: 8), ZBTB10 (sense [NT] ID NO: 9); antisense [NT] ID NO: 10), VEGF (sense [NT] ID NO: 11); antisense [NT] ID NO: 12), VEGFR1 (sense [NT] ID NO: 13); antisense [NT] ID NO: 14), Survivin (sense [NT] ID NO: 15); antisense [NT] ID NO: 16) and GAPDH (sense [NT] ID NO: 17); antisense [NT] ID NO: 18)."}, "ZBTB10": {"test_system": "ZBTB10", "assay": "ZBTB10 by semi-quantitative RT-PCR in colon cancer cells", "format": "cell-based", "details": "RKO or SW480 cells, 18 hr", "excerpt": "as §3"}, "miR-27a [5]": {"test_system": "miR-27a", "assay": "miR-27a by quantitative real time PCR in colon cancer cells", "format": "cell-based", "details": "RKO and SW480 cells, 18 hr", "experimental": "(§4) cDNA was prepared from the RKO and SW480, cell lines using Reverse Transcription System (Promega). Each PCR was carried out in triplicate in a 20-μl volume using SYBR Green Mastermix (Applied Biosystems, Foster City, Calif.) for 15 min at 95° C. for initial denaturing, followed by 40 cycles of 95° C. for 30 s and 60° C. for 1 min in the Applied Biosystems 7900HT Fast Real-time PCR System. The ABI Dissociation Curves software was used following a brief thermal protocol (95° C. for 15 s and 60° C. for 15 s, followed by a slow ramp to 95° C.) to control for multiple species in each PCR amplification. Values for each gene were normalized to expression levels of TATA-binding protein. The primers used for real-time PCR were Myt-1 (sense 5′-CCTTCCAAGAGTAGCTCCAATTC-3′ (SEQ ID NO: 19); antisense 5′-GCC GGT AGC TCC CAT ATG G-3′) (SEQ ID NO: 20) and TATA-binding protein (sense 5′-TGC ACA GGA GCC AAG AGT GM-3′ (SEQ ID NO: 21); antisense 5′-CACATCACAGCTCCCCACCA-3′) (SEQ ID NO: 22). miRNA was extracted using the mirVana miRNA extraction kit (Applied Biosystems). Quantification of miRNA (RNU6B and miRNA-27a) was done using the Taqman miRNA kit (Applied Biosystems) according to the manufacturer's protocol with real-time PCR. U6 small nuclear RNA was used as a control to determine relative miRNA expression."}, "RKO and SW480 cells [6]": {"test_system": "RKO and SW480 cells", "assay": "FACS cell cycle analysis in colon cancer cells", "format": "cell-based", "experimental": "Effects of β-CDODA-Me. SW480 (FIG. 12A) and RKO (FIG. 12B) cells were treated for 24 hr with DMSO(O), 2.5 and 5.0 μM β-CDODA-Me, and analyzed by FACS analysis. FIG. 12C: iSp modulates Sp protein expression and the cell cycle in SW480 and RKO cells. Cells were transfected with iSp, a combination of small inhibitory RNAs for Sp1, Sp3 and Sp4 or a non-specific oligonucleotide (iLamin), and analyzed for Sp proteins by Western blots (to confirm Sp knockdown) and FACS analysis. FIG. 12D: as-miR-27a modulates the cell cycle. SW480 and RKO cells were transfected with different amounts of as-miR-27a and, after 48 hr, analyzed by FACS. All experiments in FIGS. 12A-12D were repeated three times, and results are expressed as means±SE. Significant (p<0.05) changes compared to untreated (0) or iLamin-treated cells are indicated by asterisks.\nRKO and SW480 cells were treated with either the vehicle (DMSO) or the compound for 24 hr or with as-miR27a. Cells were trypsinized, centrifuged, and resuspended in staining solution containing 50 μg/mL propidium iodide, 4 mmol/L sodium citrate and 30 units/mL RNase. After incubation at room temperature for 1 hr, cells were analysed on a FACS Vantage SE DiVa made by Becton Dickinson (BD), using BD FACSDiva Software V4.1.1. Propidium iodide (PI) fluorescence was collected through a 610SP bandpass filter, and list mode data were acquired on a minimum of 50,000 single cells defined by a dot plot of PI width vs. PI area. Data analysis was performed in BD FACSDiva Software V4.1.1 using PI width vs. PI area to exclude cell aggregates."}, "Myt-1, Wee-1 and cdc2": {"test_system": "Myt-1, Wee-1 and cdc2", "assay": "Myt-1 and Wee-1 expression and cdc2 phosphorylation in colon cancer cells", "format": "cell-based", "experimental": "(§5) FIGS. 13A-13D show the in vitro and in vivo effects of β-CDODA-Me on G2/M arrest and inhibition of tumor growth. Effects of β-CDODA-Me (FIG. 13A, 13B) and as-miR-27a (FIG. 13C) on Myt-1 and cdc2 phosphorylation. Colon cancer cells were treated with different amounts of β-CDODA-Me or as-miR-27a for the indicated times, and Myt-1 expression and cdc2 phosphorylation were determined by real time PCR or Western blots, respectively. […] FIGS. 13D-13F: β-CDODA-Me inhibit tumor growth (volume) (FIG. 13D), weight (FIG. 13E) and miR-27a expression (FIG. 13F) in a mouse xenograft model. Nude mice bearing RKO cells as xenografts were treated with corn oil (solvent control) or β-CDODA-Me (15 mg/kg/d), and tumor volumes, tumor weights, and miR-27a expression were determined.\nas §4"}, "RKO and SW480 cells [7]": {"test_system": "RKO and SW480 cells", "assay": "Induction of apoptosis / PARP cleavage in colon cancer cells (Western blot)", "format": "cell-based", "experimental": "as §1, §2"}, "RKO cells as xenografts": {"test_system": "RKO cells as xenografts", "assay": "Xenograft study in athymic nude mice", "format": "in vivo", "experimental": "as §5\nMice were used in accordance with institutional guidelines when they were 8-12 wk old. To produce tumors, RKO cells were harvested from subconfluent cultures by a brief exposure to 0.25% trypsin and 0.02% EDTA and only suspensions consisting of single cells with >90% viability were used for the injections. A xenograft was established by s.c. injection of the cells (5×10^6) into the flanks of individual mice and, after 6 days, mice were randomized into two groups of 5 mice per group and dosed by oral gavage in corn oil or 15 mg/kg/d B-CDODA-Me 5 days a week for 22 days. The mice were weighed, and tumor size was measured every third day with calipers to permit calculation of tumor volumes: V=LW^2/2, where L and W were length and width, respectively. Final tumors weights were determined at the end of the dosing regimen. Tumor tissues and selected body organs (liver and kidney) were either stored in RNAlater solution (per manufacture's recommendations) for later microRNA analysis, snap frozen and stored at −80° C., or fixed in 10% formalin and embedded in paraffin."}, "[8]": {"details": "15 mg/kg/d oral gavage, 5 days a week for 22 days, vs corn oil"}},
  "data": [
    {"smiles": "Cc1c(Cl)cccc1Nc1ccccc1C(=O)O", "note": "[tolfenamic acid]", "values": [
      {"measurement": "growth of prostate and pancreatic tumors and cells", "setting": "[1]", "value": "inhibit growth"},
      {"measurement": "levels of miR-27a RNA", "setting": "miR-27a [2]", "value": "decrease"}
    ]},
    {"smiles": "COC(=O)[C@@]1(C)CC[C@]2(C)CC[C@]3(C)C(=CC(=O)[C@@H]4[C@@]5(C)C=C(C#N)C(=O)C(C)(C)[C@@H]5CC[C@]43C)[C@@H]2C1", "note": "[β-CDODA-Me, methyl-2-cyano-3,11-dioxo-18β-olean-1,12-dien-30-oate]", "values": [
      {"measurement": "proliferation", "setting": "[3]; 0.5-5 μM, 4 days", "value": "decreased proliferation"},
      {"measurement": "proliferation and apoptosis responses after cotreatment with T007", "setting": "[3]; T007 10 μM", "value": "not affected"},
      {"measurement": "luciferase activity, Sp1 promoter constructs (pSp1For4, pSp1For2, pSp1For1)", "setting": "Sp1 gene promoter", "value": "decreased luciferase activity"},
      {"measurement": "luciferase activity, Sp3 promoter constructs (pSp3For5, pSp3For2)", "setting": "Sp3 gene promoter", "value": "decreased luciferase activity"},
      {"measurement": "Sp1, Sp3 and Sp4 mRNA levels", "setting": "[4]; 24 hr, semi-quantitative RT-PCR", "value": "decreased expression"},
      {"measurement": "expression of Sp-dependent proteins survivin, VEGFR1 (Flt-1) and VEGF", "setting": "[4]; Western blot", "value": "decreased expression"},
      {"measurement": "ZBTB10 levels", "setting": "ZBTB10", "value": "induced"},
      {"measurement": "miR-27a", "setting": "miR-27a [5]", "value": "decreased"},
      {"measurement": "cell cycle arrest", "setting": "RKO and SW480 cells [6]", "value": "induced a G2/M arrest"},
      {"measurement": "percentage of cells in S phase", "setting": "RKO and SW480 cells [6]; 24 hr, 2.5 and 5.0 μM respectively", "value": "increased and then decreased"},
      {"measurement": "cells in G2/M", "setting": "RKO and SW480 cells [6]; 24 hr, 2.5 and 5.0 μM, vs DMSO", "value": "increase"},
      {"measurement": "percentage of cells in G0/G1", "setting": "RKO and SW480 cells [6]; 24 hr, 2.5 and 5.0 μM, vs DMSO", "value": "concentration-dependent decrease"},
      {"measurement": "cdc2 phosphorylation", "setting": "Myt-1, Wee-1 and cdc2; RKO and SW480 cells, Western blot", "value": "time-dependent induction"},
      {"measurement": "Myt-1 mRNA expression", "setting": "Myt-1, Wee-1 and cdc2; RKO and SW480 cells, real time PCR", "value": "induced"},
      {"measurement": "Wee-1 expression", "setting": "Myt-1, Wee-1 and cdc2; SW480 or RKO cells", "value": "did not affect"},
      {"measurement": "apoptosis", "setting": "RKO and SW480 cells [7]; RKO and SW480 cells", "value": "induced apoptosis"},
      {"measurement": "caspase-dependent PARP cleavage", "setting": "RKO and SW480 cells [7]; colon cancer cells (β-CDODA-Me: RKO; ZBTB10: SW480 and RKO)", "value": "induced"},
      {"measurement": "levels of miR-27a RNA", "setting": "miR-27a [2]", "value": "decrease"},
      {"measurement": "body or organ weight loss associated with toxic side effects", "setting": "RKO cells as xenografts; 15 mg/kg/d", "value": "not accompanied by any body or organ weight loss"},
      {"measurement": "miR-27a expression in tumors", "setting": "RKO cells as xenografts; [8]", "value": "inhibited"},
      {"measurement": "tumor growth (volume)", "setting": "RKO cells as xenografts; [8]", "value": "inhibited"},
      {"measurement": "tumor weight", "setting": "RKO cells as xenografts; [8]", "value": "inhibited"}
    ]}
  ]
}
